Assay results published in patent US20090283050A1, “FEED COMPOSITION AND METHOD FOR BREEDING ANIMALS” (KENKO CORPORATION, priority 2005, published 2009).

System: Salmonella
Test: Antimicrobial effect (MIC, MBC) on Salmonella
Format: cell-based
Settings: compared with the other antimicrobial agents tested
Method: The antimicrobial effects of these samples were evaluated by the determination of Minimum Inhibitory Concentration (MIC) and Minimum Bactericidal Concentration (MBC).
In this connection, bacterial strains used herein were those obtained from enteric canal of broiler chicken.

Compound: CC1(C)S[C@@H]2[C@H](NC(=O)[C@H](N)c3ccccc3)C(=O)N2[C@H]1C(=O)O [Ampicillin]
- antibacterial effect against Salmonella, in words: quite weak antibacterial effect
